# Measured values reported in ChEMBL document CHEMBL1148295, “Evaluation and comparison of 3D-QSAR CoMSIA models for CDK1, CDK5, and GSK-3 inhibition by paullones” (J Med Chem, 2004).
# Assays:
# [1] = target: Cyclin-dependent kinase 1/cyclin B (Homo sapiens, UniProt O95067+P06493+P14635+Q8WWL7); type: cell-based, Marthasterias glacialis, Oocyte
# Description: Inhibitory activity against cyclin dependent kinase 1-cyclinB extracted from M phase starfish (Marthasterias glacialis) oocytes
# [2] = target: Cyclin-dependent kinase 5/CDK5 activator 1 (Homo sapiens, UniProt Q00535); type: protein-complex assay
# Cyclin-dependent kinase 5/CDK5 activator 1, sequence (Q00535 whole entry): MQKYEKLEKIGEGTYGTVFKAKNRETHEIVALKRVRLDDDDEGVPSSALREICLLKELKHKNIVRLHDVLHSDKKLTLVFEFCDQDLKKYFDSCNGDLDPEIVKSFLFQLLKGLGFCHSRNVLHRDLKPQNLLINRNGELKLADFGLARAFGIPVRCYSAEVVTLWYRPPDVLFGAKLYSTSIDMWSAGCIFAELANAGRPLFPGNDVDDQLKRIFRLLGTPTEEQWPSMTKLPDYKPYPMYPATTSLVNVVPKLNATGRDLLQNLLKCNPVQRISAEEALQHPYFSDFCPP
# Cyclin-dependent kinase 5/CDK5 activator 1, sequence (Q15078 whole entry, further chain): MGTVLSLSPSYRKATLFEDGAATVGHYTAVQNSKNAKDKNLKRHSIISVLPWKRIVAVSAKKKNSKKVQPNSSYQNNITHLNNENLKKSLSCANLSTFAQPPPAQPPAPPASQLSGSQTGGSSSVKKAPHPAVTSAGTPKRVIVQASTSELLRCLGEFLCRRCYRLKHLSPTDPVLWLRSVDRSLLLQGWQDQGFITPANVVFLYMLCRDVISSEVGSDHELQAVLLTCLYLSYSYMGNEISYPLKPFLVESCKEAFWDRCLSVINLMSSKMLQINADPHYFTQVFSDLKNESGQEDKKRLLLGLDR
# Description: Inhibitory activity against cyclin-dependent kinase 5/p25
# Cyclin-dependent kinase 1/cyclin B, sequence (P06493 whole entry): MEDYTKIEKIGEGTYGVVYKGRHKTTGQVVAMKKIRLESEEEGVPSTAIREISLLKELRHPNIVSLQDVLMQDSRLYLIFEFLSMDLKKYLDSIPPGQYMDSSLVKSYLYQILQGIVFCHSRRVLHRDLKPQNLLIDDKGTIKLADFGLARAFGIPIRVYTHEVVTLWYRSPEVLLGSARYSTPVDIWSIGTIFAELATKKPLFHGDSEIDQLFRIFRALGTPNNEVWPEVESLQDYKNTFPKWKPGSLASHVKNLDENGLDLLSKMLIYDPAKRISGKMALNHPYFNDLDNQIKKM
# Cyclin-dependent kinase 1/cyclin B, sequence (P14635 whole entry): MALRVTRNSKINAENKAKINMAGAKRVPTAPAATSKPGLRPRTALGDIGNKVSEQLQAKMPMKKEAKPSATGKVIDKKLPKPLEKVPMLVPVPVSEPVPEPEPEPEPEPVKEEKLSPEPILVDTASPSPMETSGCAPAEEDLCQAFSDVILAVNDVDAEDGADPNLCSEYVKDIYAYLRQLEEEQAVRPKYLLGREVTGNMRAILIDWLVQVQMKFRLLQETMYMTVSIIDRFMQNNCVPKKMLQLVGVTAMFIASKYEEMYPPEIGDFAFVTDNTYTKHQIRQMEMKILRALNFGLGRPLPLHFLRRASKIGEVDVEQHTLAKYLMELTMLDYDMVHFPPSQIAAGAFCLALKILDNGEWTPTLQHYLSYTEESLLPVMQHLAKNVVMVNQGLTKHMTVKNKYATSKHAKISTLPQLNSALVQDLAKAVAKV
# Cyclin-dependent kinase 1/cyclin B, sequence (Q8WWL7 whole entry): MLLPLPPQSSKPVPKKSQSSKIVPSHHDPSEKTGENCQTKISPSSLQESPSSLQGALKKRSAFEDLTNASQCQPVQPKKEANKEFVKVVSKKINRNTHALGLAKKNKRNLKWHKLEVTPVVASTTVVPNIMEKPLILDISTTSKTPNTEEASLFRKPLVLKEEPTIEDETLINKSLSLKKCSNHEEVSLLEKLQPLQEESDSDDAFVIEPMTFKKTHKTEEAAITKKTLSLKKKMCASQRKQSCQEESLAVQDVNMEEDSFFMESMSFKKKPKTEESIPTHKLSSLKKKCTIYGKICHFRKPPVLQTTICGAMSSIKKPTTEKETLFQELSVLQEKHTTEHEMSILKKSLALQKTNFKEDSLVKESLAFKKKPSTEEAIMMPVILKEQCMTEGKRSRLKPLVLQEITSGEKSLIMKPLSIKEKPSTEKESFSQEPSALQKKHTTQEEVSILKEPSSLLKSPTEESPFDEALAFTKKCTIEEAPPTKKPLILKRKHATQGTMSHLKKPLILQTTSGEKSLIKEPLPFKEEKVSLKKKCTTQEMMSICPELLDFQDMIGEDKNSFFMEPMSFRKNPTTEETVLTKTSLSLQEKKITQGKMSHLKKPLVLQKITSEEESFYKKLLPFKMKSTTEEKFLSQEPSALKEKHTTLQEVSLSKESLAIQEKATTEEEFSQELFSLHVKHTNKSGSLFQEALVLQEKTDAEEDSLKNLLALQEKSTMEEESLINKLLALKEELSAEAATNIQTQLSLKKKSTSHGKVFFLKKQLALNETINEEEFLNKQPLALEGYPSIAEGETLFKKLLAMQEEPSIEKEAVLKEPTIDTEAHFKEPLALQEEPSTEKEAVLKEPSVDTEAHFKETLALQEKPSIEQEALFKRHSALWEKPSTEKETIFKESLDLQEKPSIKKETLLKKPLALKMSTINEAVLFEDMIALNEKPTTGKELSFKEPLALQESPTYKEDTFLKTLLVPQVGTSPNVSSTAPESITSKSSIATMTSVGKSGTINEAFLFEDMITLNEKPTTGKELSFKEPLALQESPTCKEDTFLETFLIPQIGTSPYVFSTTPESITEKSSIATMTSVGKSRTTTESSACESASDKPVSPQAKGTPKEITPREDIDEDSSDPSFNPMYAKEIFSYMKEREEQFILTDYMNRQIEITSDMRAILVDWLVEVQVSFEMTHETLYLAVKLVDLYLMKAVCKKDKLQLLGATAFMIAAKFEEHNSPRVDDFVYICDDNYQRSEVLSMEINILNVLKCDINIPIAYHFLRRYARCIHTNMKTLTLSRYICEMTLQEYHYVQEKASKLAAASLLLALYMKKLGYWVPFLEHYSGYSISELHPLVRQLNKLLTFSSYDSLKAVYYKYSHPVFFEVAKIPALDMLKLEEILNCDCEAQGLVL
# Cyclin-dependent kinase 1/cyclin B, sequence (O95067 whole entry): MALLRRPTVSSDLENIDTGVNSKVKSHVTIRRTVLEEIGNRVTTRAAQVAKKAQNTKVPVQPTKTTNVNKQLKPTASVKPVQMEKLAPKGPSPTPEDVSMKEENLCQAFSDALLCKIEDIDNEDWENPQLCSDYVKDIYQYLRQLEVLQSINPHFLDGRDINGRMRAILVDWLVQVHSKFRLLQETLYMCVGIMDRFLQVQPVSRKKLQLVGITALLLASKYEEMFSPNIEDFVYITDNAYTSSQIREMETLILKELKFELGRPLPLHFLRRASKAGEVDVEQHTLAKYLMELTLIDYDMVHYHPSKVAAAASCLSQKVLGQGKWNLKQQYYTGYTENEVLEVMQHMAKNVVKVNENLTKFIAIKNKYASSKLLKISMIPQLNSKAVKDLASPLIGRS
Compound,IC50 [1],IC50 [2]
COc1ccc2c(c1)NC(=O)Cc1c-2[nH]c2ccc([N+](=O)[O-])cc12,1 µM,0.63 µM
N#Cc1ccc2[nH]c3c(c2c1)CC(=O)Nc1ccsc1-3,0.075 µM,–
Cc1ccc2[nH]c3c(c2c1)CC(=O)Nc1ccsc1-3,–,40 µM
O=C1Cc2c([nH]c3ccc([N+](=O)[O-])cc23)-c2sccc2N1,0.08 µM,0.1 µM
O=C1Cc2c([nH]c3ccc(C(F)(F)F)cc23)-c2cccnc2N1,6 µM,13 µM
COc1ccc2[nH]c3c(c2c1)CC(=O)Nc1ncccc1-3,89.9 µM,420 µM
O=[N+]([O-])c1ccc2[nH]c3c(c2c1)CC(=S)Nc1ccccc1-3,1.3 µM,1.7 µM
Cc1ccc2[nH]c3c(c2c1)CC(=O)Nc1ncccc1-3,200 µM,430 µM
O=C1Cc2c([nH]c3ccc(Br)cc23)-c2sccc2N1,–,4 µM
CSC1=Nc2ccccc2-c2c(c3cc([N+](=O)[O-])ccc3n2C)C1,230 µM,849 µM
SC1=Nc2ccccc2-c2cc(-c3ccccn3)cc(-c3cccs3)c2C1,33 µM,–
O=C1Cc2c([nH]c3ccc(Cl)cc23)-c2cccnc2N1,23 µM,42 µM
O=C1Cc2c([nH]c3ncccc23)-c2ccccc2N1,–,3.3 µM
CC(=O)Cc1ccc2c(c1)-c1[nH]c3ccc(C(F)(F)F)cc3c1CC(=O)N2,–,0.42 µM
O=C1Cc2c([nH]c3ccc(Cl)cc23)-c2sccc2N1,–,5 µM
